Assay results: patent publication US20210220489A1, “AMYGDALAR NEURAL ENSEMBLE THAT ENCODES THE UNPL[…] PAIN” (The Board of Trustees of the Leland Stanford Junior …, priority 2020, published 2021)

Tested on: noci-TRAP^hM4 mice
Assay: Reflexive and affective-motivational pain behaviors after chemogenetic inhibition of the BLA nociceptive ensemble
Assay type: in vivo
Settings: CNO 10 mg/kg; mechanical and thermal noxious stimuli
Experimental: We habituated mice to a first testing room (room-A) for three consecutive days. Execution of all TRAP procedures occurred in Room-A. During these habituation days, no nociceptive stimuli were delivered, and no baseline thresholds were measured (i.e., mice were naïve to pain experience before the TRAP procedure). In room-A, we placed individual mice within red plastic cylinders (10.16-cm D), with a red lid, on a raised perforated, flat metal platform (60.96-cm H). […] This stimulus frequency was selected to closely match the protocols used in the microendoscope imaging experiments in which significant Ca^2+ transients were reliably detected in BLA Camk2a+ neurons. […]
To evaluate mechanical reflexive sensitivity, we used a logarithmically increasing set of 8 von Frey filaments (Stoelting), ranging in gram force from 0.07- to 6.0-g (93). […] Using the Up-Down statistical method, the 50% withdrawal mechanical threshold scores were calculated for each mouse and then averaged across the experimental groups. The response frequency was calculated as the number of positive responses out of 10 stimulations, delivered at 30-s intervals. […]

For `C[N+]1([O-])CCN(C2=Nc3cc(Cl)ccc3Nc3ccccc32)CC1` [CNO, clozapine-N-oxide], the “attending and escape behaviors” value was “significantly reduced”.
